From patent US20140271649A1, “METHODS AND COMPOSITIONS FOR INHIBITING STAPHYLOCOCCUS AGGLUTINATION IN BLOOD” (The University of Chicago, priority 2011, published 2014)

Tests used:
clfA mutant S. aureus = assay: Mouse sepsis survival, clfA mutant challenge; type: in vivo, BALB/c mice
Description: (§1) Sepsis. Overnight cultures of staphylococcal strains were diluted 1:100 into fresh TSB and grown until they reached an OD600 of 0.4. Bacteria were centrifuged at 7,000×g, washed, and suspended in the one-tenth volume of PBS. Six week-old female BALB/c mice (n=15) (Charles River) were injected retro-orbitally with 1×10^8 CFU (S. aureus Newman, MW2, and N315) or 5×10^7 CFU (S. aureus USA300) suspensions in 100 μl of PBS. Mice were monitored for survival over 10 days. To enumerate staphylococcal load in heart tissue twelve hours post-infection, mice were euthanized by CO2 asphyxyation and hearts were removed during necropsy. Heart tissue was homogenized in PBS, 0.1% Triton X-100. Serial dilutions of homogenate were spread on TSA and incubated for colony formation. The bacterial load in organ tissue was analyzed in pairwise comparisons between wild-type and mutant strains with the unpaired two-tailed Student's t-test. For histopathology, mice infected with S. aureus were euthanized 12 hours after infection. Hearts were removed during necropsy and fixed in 10% formalin for 24 hours at room temperature. […] Data were analyzed in pairwise comparisons between wild-type and mutant strains with the unpaired two-tailed Student's t-test. […]
(§2) Dabigatran etexilate treatment. […] Thrombin time was measured on a STA-R analyzer (Diagnostica Stago).

S. aureus USA300 LAC = assay: Mouse sepsis survival, S. aureus USA300 LAC challenge; type: in vivo, BALB/c mice; conditions: 10 mg/kg i.p. every 12 h; lethal dose S. aureus USA300 LAC; vs mock
Description: as §1, §2

clfA (pclfA) variant = assay: Mouse sepsis survival, clfA (pclfA) variant challenge; type: in vivo, BALB/c mice
Description: as §1, §2

S. aureus Newman [1] = assay: Mouse sepsis survival, S. aureus Newman challenge; type: in vivo, BALB/c mice; conditions: 10 mg/kg i.p. in 12 hour intervals, mock treated died within 60 hours
S. aureus coa/vwb mutant = assay: Mouse sepsis survival, S. aureus coa/vwb mutant challenge; type: in vivo, BALB/c mice; conditions: 10 mg/kg i.p. every 12 h, vs mock
Description: as §1, §2

S. aureus Newman [2] = assay: Heart tissue histopathology 12 hours after S. aureus Newman infection; type: in vivo, BALB/c mice
Coa-prothrombin [3] = assay: Coagulase activity: fibrinogen to fibrin conversion by Coa-prothrombin; type: biochemical, S. aureus / human; conditions: 200 ng argatroban, absorbance at 450 nm
Description: (§3) Coagulase activity. Purified recombinant Coa or vWbp (100 nM) were mixed with human prothrombin (Innovative Research) in 1% sodium-citrate/PBS. After an initial reading, fibrinogen (3 μM) (Sigma) was added and conversion of fibrinogen to fibrin was measured as an increase in turbidity at 450 nm in a plate reader (BioTek) at 2.5 min intervals. As controls, the enzymatic activity of human alpha-thrombin (Innovative Research) or prothombin alone were measured. Argatroban (200 ng, Novaplus) was added to reactions prior to the addition of fibrinogen.

S. aureus N315 [4] = assay: Agglutination assay in plasma, MRSA N315; type: cell-based, Staphylococcus aureus; conditions: argatroban (1 mg/mL), OD550 after two hours
human alpha-thrombin = human alpha-thrombin (Homo sapiens, UniProt P00734); assay: Coagulase activity control: fibrinogen to fibrin conversion by thrombin; type: biochemical; conditions: 200 ng argatroban, absorbance at 450 nm, compared to mock control
Description: as §3

S. aureus Newman [5] = assay: Agglutination assay in plasma, S. aureus Newman; type: cell-based, Staphylococcus aureus; conditions: argatroban treatment, increasing concentrations
Description: Agglutination assay. Overnight cultures of staphylococcal strains were washed in 1 mL 0.85% NaCl and suspended to a final concentration of OD600 4.0 in 1 mL. Bacteria were incubated with 1:500 Syto9 (Invitrogen) for 15 minutes, washed with 1 mL 0.85% NaCl, and suspended in 1 mL saline. Bacteria were mixed 1:1 with EDTA-chelated rabbit plasma (Becton, Dickinson) on a glass microscope slide and incubated for 15 minutes. Samples were viewed and images captured on an Olympus Provis microscope using a 40× objective. For quantification of agglutination, plasma and bacteria were inoculated onto polystyrene C-Chip disposable hemocytometer slides (IN-CYTO). […] For analysis, the largest aggregate in each field of view was outlined in ImageJ and the area of that aggregate measured. Mean area of S. aureus aggregates were determined and normalized by subtracting Newman in saline without plasma from all values. Percent agglutination was calculated by normalizing all mean intensity values to S. aureus Newman in plasma. […] Fold change in agglutination was calculated as the ratio of mean bacterial aggregation area in the presence of antibody compared to control. Statistical significance, P<0.05, was determined by one way analysis of variance (ANOVA), with Dunnett's multiple comparison analysis for post-hoc testing using GraphPad Prism software. […]

Coa-prothrombin [6] = conditions: literature (Hijikata-Okunomiya and Kataoka, 2003; Vanassche et al., 2010); cited from earlier work
vWbp-prothrombin = biological target: T1, vWbp-prothrombin (Homo sapiens, UniProt P00734); assay: Coagulase activity: fibrinogen to fibrin conversion by vWbp-prothrombin; type: biochemical, S. aureus / human; conditions: 200 ng argatroban, absorbance at 450 nm
T1 construct: purchased Innovative Research (prothrombin); host or cells: vWbp made in house in E. coli BL21(DE3), Ni-NTA purified
Description: as §3

S. aureus MW2 [7] = assay: Agglutination assay in plasma, MRSA MW2; type: cell-based, Staphylococcus aureus; conditions: argatroban (1 mg/mL), OD550 after two hours
S. aureus N315 [8] = assay: Mouse sepsis survival, MRSA N315 challenge; type: in vivo, BALB/c mice; conditions: lethal challenge S. aureus N315; Dbg 10 mg/kg, antibodies 5 mg/kg
S. aureus MW2 [9] = assay: Mouse sepsis survival, MRSA MW2 challenge; type: in vivo, BALB/c mice; conditions: lethal challenge S. aureus MW2; Dbg 10 mg/kg, antibodies 5 mg/kg
[10] = Serum IgG after active immunization (ELISA); type: in vivo, BALB/c mice; conditions: 50 μg protein in CFA, boost in IFA
[11] = in vivo, sc; cited from earlier work

Compound: CCCCCCOC(=O)N=C(N)c1ccc(NCc2nc3cc(C(=O)N(CCC(=O)OCC)c4ccccn4)ccc3n2C)cc1 [dabigatran-etexilate]
- survival and time-to-death (clfA mutant S. aureus; clfA mutant challenge compared to control strain harboring pclfA): increased the survival and time-to-death
- disease outcome (clfA mutant S. aureus; clfA mutant challenge compared to mock treated mice): further improved the disease outcome
- survival of septic mice (S. aureus USA300 LAC): prolonged the survival
- benefit from treatment (time-to-death) (clfA (pclfA) variant): benefited
- survival after challenge (S. aureus Newman [1]): up to 132 hours
- survival or time-to-death (S. aureus coa/vwb mutant): no effect
- agglutination of staphylococcus in heart tissue (S. aureus Newman [2]; dabigatran-etexilate treatment, S. aureus Newman, 12 hours, histopathology): reduced agglutination

Compound: CC1CNc2c(cccc2S(=O)(=O)N[C@@H](CCCNC(=N)N)C(=O)N2CC[C@@H](C)C[C@@H]2C(=O)O)C1 (some centres unmarked) [argatroban]
- conversion of fibrinogen to fibrin by Coa-prothrombin (Coa-prothrombin [3]): blocked
- agglutination of S. aureus N315 in EDTA-plasma (S. aureus N315 [4]): inhibited
- conversion of fibrinogen to fibrin by thrombin (human alpha-thrombin): blocked
- agglutination of S. aureus Newman in plasma (S. aureus Newman [5]): interfered with the agglutination
- inhibition of the proteolytically active Coa-prothrombin complex (Coa-prothrombin [6]): inhibit
- conversion of fibrinogen to fibrin by vWb-prothrombin (vWbp-prothrombin): blocked
- agglutination of S. aureus MW2 in EDTA-plasma (S. aureus MW2 [7]): inhibited

Compound: [H]/N=C(/N)c1ccc(NCc2nc3cc(C(=O)N(CCC(=O)O)c4ccccn4)ccc3n2C)cc1 [dabigatran]
- time-to-death / survival during sepsis (S. aureus N315 [8]): did not prolong the survival
- time-to-death / survival during sepsis (S. aureus MW2 [9]): did not prolong the survival
- inhibition of the proteolytically active Coa-prothrombin complex (Coa-prothrombin [6]): inhibit

Compound: ClfA: purified recombinant S. aureus clumping factor A; used in binding assay and as antigen for active immunization
- specific IgG antibodies after active immunization [10]: raised specific IgG antibodies
- frequency of heart lesions (S. aureus Newman [2]; active immunization, challenged twelve hours with wild-type S. aureus Newman): reduced the frequency of heart lesions

Compound: N=C(N)c1ccc(CNC(=O)[C@@H]2CCN2C(=O)[C@H](NCC(=O)O)C2CCCCC2)cc1 [melagatran]
- dose at which toxicity began [11]: over 5 mg
